IC50 data for 26 compounds are collected here from US11827628B2, “Compositions and methods for inhibition of the JAK pathway” (Rigel Pharmaceuticals, Inc., priority 2005, dated 2023).

SMILES strings stand for the structures.

One assay has as its system Primary human T-cells. Briefly: Primary Human T-Cell Proliferation Assay Stimulated with IL-2 (CellTiter-Glo). Type of assay: cell-based. The note with it: primary human T-cell proliferation stimulated with IL-2; read-out: IC50, Example 42. Put shortly: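 IC50 derived from CellTiter-Glo ATP signal after 72 hours of IL-2-driven proliferation at 37° C. Cells: primary human T-cells from blood, stimulated beforehand 3-4 days on anti-CD3/anti-CD28 with IL-2, then rested from IL-2 before compound exposure in duplicate; IL-2-free wells served as unstimulated control.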
For orientation: In ATP-based viability assays light output follows the ATP content of the culture.

Assay [1] has as its system up-regulation of ICAM-1 (CD54) by IFNγ in A549 lung epithelial cells. Briefly: A549 Epithelial Line Stimulated with IFNγ (ICAM-1 surface expression, FACS). Type of assay: cell-based, human. To be noted: A549 epithelial line stimulated with IFNγ; ICAM-1 expression by FACS; read-out: IC50, Example 43. Put shortly:
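ICAM-1 (CD54) flow cytometry on live-gated A549 cells, geometric mean versus dose giving EC50. Cells received IFNγ at 75 ng/mL for 24 h after a 1 h compound pre-treatment spanning 30 μM to 14 nM in medium with 5% FBS and 0.3% DMSO.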
In general terms: In flow cytometry, cells or beads pass a laser one at a time.

In general, IC50 refers to the concentration that gives 50% inhibition. Consider `CN1CCN(S(=O)(=O)c2cccc(Nc3ncc(F)c(Nc4ccc(OCC#N)cc4)n3)c2)CC1` [Compound I-19, N4-(4-Cyanomethoxy)phenyl-5-fluoro-N2-[3-(4-methylpiperazin-1-yl)sulfonyl]phenyl-2,4-pyrimidinediamine], for which the values for the IC50 (in the assay with Primary human T-cells; in assay [1]) were 1040 nM and 24900 nM, respectively.
Consider `Cc1ccc(Nc2ncc(F)c(Nc3ccc(OCC#N)cc3)n2)cc1S(N)(=O)=O` [Compound I-20, N2-(3-Aminosulfonyl-4-methyl)phenyl-N4-(4-cyanomethoxy)phenyl-5-fluoro-2,4-pyrimidinediamine], for which the IC50 in the assay on Primary human T-cells was 66.2 nM; in assay [1], 6540 nM.
In the same order, the values of `N#CCOc1ccc(Nc2nc(Nc3ccc(Cl)c(S(N)(=O)=O)c3)ncc2F)cc1` [Compound I-21, N2-(3-Aminosulfonyl-4-chlorophenyl)-N4-(4-cyanomethoxy)phenyl-5-fluoro-2,4-pyrimidinediamine] are 258 nM and 22700 nM.
In the same order, the values of `Cc1cc(Nc2nc(Nc3ccc(S(N)(=O)=O)cc3)ncc2F)ccc1OCC#N` [Compound I-22, N2-(4-Aminosulfonyl)phenyl-N4-(4-cyanomethoxy-3-methyl)phenyl-5-fluoro-2,4-pyrimidinediamine] are 944 nM and 14400 nM.
In the same order, the values of `Cc1cc(Nc2nc(Nc3ccc(S(N)(=O)=O)cc3)ncc2F)cc(C)c1OCC#N` [Compound I-25, N2-(4-Aminosulfonyl)phenyl-N4-(4-cyanomethoxy-3,5-dimethyl)phenyl-5-fluoro-2,4-pyrimidinediamine] are 1610 nM and 25300 nM.
As for `Cc1cc(Nc2nc(Nc3cccc(S(N)(=O)=O)c3)ncc2F)cc(C)c1OCC#N` [Compound I-26, N2-(3-Aminosulfonyl)phenyl-N4-(4-cyanomethoxy-3,5-dimethyl)phenyl-5-fluoro-2,4-pyrimidinediamine], the figures for the IC50 (with Primary human T-cells; in assay [1]) were 401 nM and 4230 nM, respectively.
In the same order, the values of `Cc1ccc(Nc2ncc(F)c(Nc3cc(C)c(OCC#N)c(C)c3)n2)cc1S(N)(=O)=O` [Compound I-27, N2-(3-Aminosulfonyl-4-methyl)phenyl-N4-(4-cyanomethoxy-3,5-dimethyl)phenyl-5-fluoro-2,4-pyrimidinediamine] are 914 nM and 3480 nM.
In the same order, the values of `COc1cc(Nc2ncc(F)c(Nc3cc(C)c(OCC#N)c(C)c3)n2)ccc1S(N)(=O)=O` [Compound I-32, N2-(4-Aminosulfonyl-3-methoxy)phenyl-N4-(4-cyanomethoxy-3,5-dimethyl)phenyl-5-fluoro-2,4-pyrimidinediamine] are 2780 nM and 5500 nM.
On to `Cc1cc(COc2ccc(Nc3nc(Nc4cc(C)c(F)c(S(N)(=O)=O)c4)ncc3F)cc2)no1` [Compound I-217, N2-(3-Aminosulfonyl-4-fluoro-5-methylphenyl)-5-fluoro-N4-[4-(5-methylisoxazol-3-yl)methyleneoxyphenyl]-2,4-pyrimidinediamine], for which the values for the IC50 (in the assay on Primary human T-cells; in assay [1]) were 217 nM and 36600 nM, respectively.
On to `Cc1cc(COc2ccc(Nc3nc(Nc4cc(C)c(Cl)c(S(N)(=O)=O)c4)ncc3F)cc2)no1` [Compound I-218, N2-(3-Aminosulfonyl-4-chloro-5-methylphenyl)-5-fluoro-N4-[4-(5-methylisoxazol-3-yl)methyleneoxyphenyl]-2,4-pyrimidinediamine], for which the IC50 amounted to 116 nM with Primary human T-cells and 3270 nM in assay [1].
In the same order, the values of `Cc1cc(COc2ccc(Nc3nc(Nc4ccc(C)c(S(N)(=O)=O)c4)ncc3F)cc2)no1` [Compound I-219, N2-(3-Aminosulfonyl-4-methylphenyl)-5-fluoro-N4-[4-(5-methylisoxazol-3-yl)methyleneoxyphenyl]-2,4-pyrimidinediamine] are 123 nM and 7160 nM.
Turning to `Cc1cc(COc2ccc(Nc3nc(Nc4cc(Cl)c(C)c(S(N)(=O)=O)c4)ncc3F)cc2F)no1` [Compound I-223, N2-(3-Aminosulfonyl-5-chloro-4-methylphenyl)-5-fluoro-N4-[3-fluoro-4-(5-methylisoxazol-3-yl)methyleneoxyphenyl]-2,4-pyrimidinediamine], the IC50 was determined as 625 nM with Primary human T-cells and 9090 nM in assay [1].
In the same order, the values of `Cc1cc(COc2ccc(Nc3nc(Nc4cc(C)c(F)c(S(N)(=O)=O)c4)ncc3F)cc2F)no1` [Compound I-224, N2-(3-Aminosulfonyl-4-fluoro-5-methylphenyl)-5-fluoro-N4-[3-fluoro-4-(5-methylisoxazol-3-yl)methyleneoxyphenyl]-2,4-pyrimidinediamine] are 194 nM and 11300 nM.
In the same order, the values of `Cc1cc(COc2ccc(Nc3nc(Nc4ccc(C)c(S(N)(=O)=O)c4)ncc3F)cc2C)no1` [Compound I-234, N2-(3-Aminosulfonyl-4-methylphenyl)-5-fluoro-N4-[3-methyl-4-(5-methylisoxazol-3-yl)methyleneoxyphenyl]-2,4-pyrimidinediamine] are 1010 nM and 8160 nM.
In the same order, the values of `CCN(CC)CCNS(=O)(=O)c1cccc(Nc2ncc(F)c(Nc3ccc(OCc4cc(C)on4)c(C)c3)n2)c1` [Compound I-244, N2-[3-(2-N,N-Diethylaminoethyl)aminosulfonylphenyl)-5-fluoro-N4-[3-methyl-4-(5-methylisoxazol-3-yl)methyleneoxyphenyl]-2,4-pyrimidinediamine] are 1410 nM and 14700 nM.
Regarding `CCN(CC)CCNS(=O)(=O)c1ccc(Nc2ncc(F)c(Nc3ccc(OCc4cc(C)on4)c(C)c3)n2)cc1` [Compound I-245, N2-[4-(2-N,N-Diethylaminoethyl)aminosulfonylphenyl)-5-fluoro-N4-[3-methyl-4-(5-methylisoxazol-3-yl)methyleneoxyphenyl]-2,4-pyrimidinediamine], the IC50 in the assay on Primary human T-cells is 1740 nM; in assay [1] it was 16700 nM.
In the same order, the values of `CCN(CC)CCNS(=O)(=O)c1ccc(Nc2ncc(F)c(Nc3ccc(OCc4cc(C)on4)cc3)n2)cc1` [Compound I-246, N2-[4-(2-N,N-Diethylaminoethyl)aminosulfonylphenyl)-5-fluoro-N4-[4-(5-methylisoxazol-3-yl)methyleneoxyphenyl]-2,4-pyrimidinediamine] are 182 nM and 8880 nM.
As to `Cc1noc(COc2cccc(Nc3nc(Nc4cccc(S(N)(=O)=O)c4)ncc3F)c2)n1` [Compound I-252, N2-(3-Aminosulfonylphenyl)-5-fluoro-N4-[3-(3-methyl-1,2,4-oxadiazol-5-yl)methyleneoxyphenyl]-2,4-pyrimidinediamine], the figures for the concentration for half-maximal inhibition (IC50) (in the assay with Primary human T-cells; in assay [1]) were 558 nM and 74200 nM, respectively.
In the same order, the values of `Cc1noc(COc2cccc(Nc3nc(Nc4ccc(C)c(S(N)(=O)=O)c4)ncc3F)c2)n1` [Compound I-254, N2-(3-Aminosulfonyl-4-methylphenyl)-5-fluoro-N4-[3-(3-methyl-1,2,4-oxadiazol-5-yl)methyleneoxyphenyl]-2,4-pyrimidinediamine] are 1910 nM and 8960 nM.
Regarding `CNS(=O)(=O)c1cc(Nc2ncc(F)c(Nc3cccc(OCc4nc(C)no4)c3)n2)ccc1C` [Compound I-255, 5-Fluoro-N2-[3-(N-methylaminosulfony)-4-methylphenyl]-N4-[3-(3-methyl-1,2,4-oxadiazol-5-yl)methyleneoxyphenyl]-2,4-pyrimidinediamine], the IC50 in the assay with Primary human T-cells was determined as 2860 nM; in assay [1], 39300 nM.
In the same order, the values of `Cc1noc(COc2ccc(Nc3nc(Nc4cccc(S(=O)(=O)NCc5oc(=O)oc5C)c4)ncc3F)cc2)n1` [Compound I-257, N2-{3-[(N-5-Methyl-1,3-dioxolene-2-one-4-yl)methylene]aminosulfonylphenyl}-5-fluoro-N4-[4-(3-methyl-1,2,4-oxadiazol-5-yl)methyleneoxyphenyl]-2,4-pyrimidinediamine] are 102 nM and 3080 nM.
In the same order, the values of `Cc1noc(COc2ccc(Nc3nc(Nc4ccc(C)c(S(N)(=O)=O)c4)ncc3F)cc2)n1` [Compound I-259, N2-(3-Aminosulfonyl-4-methylphenyl)-5-fluoro-N4-[4-(3-methyl-1,2,4-oxadiazol-5-yl)methyleneoxyphenyl]-2,4-pyrimidinediamine] are 65.8 nM and 7510 nM.
In the same order, the values of `CNS(=O)(=O)c1cc(Nc2ncc(F)c(Nc3ccc(OCc4nc(C)no4)cc3)n2)ccc1C` [Compound I-260, 5-Fluoro-N2-[3-N-(methyl)aminosulfonyl-4-methylphenyl)-N4-[4-(3-methyl-1,2,4-oxadiazol-5-yl)methyleneoxyphenyl]-2,4-pyrimidinediamine] are 223 nM and 8440 nM.
`Cc1noc(COc2ccc(Nc3nc(Nc4cc(C)c(Cl)c(S(N)(=O)=O)c4)ncc3F)cc2)n1` [Compound I-265, N2-(3-Aminosulfonyl-4-chloro-5-methylphenyl)-5-fluoro-N4-[4-(3-methyl-1,2,4-oxadiazol-5-yl)methyleneoxyphenyl]-2,4-pyrimidinediamine]: the IC50 in the assay on Primary human T-cells came to 39.7 nM; in assay [1] it was 4080 nM.
In the same order, the values of `Cc1noc(COc2ccc(Nc3nc(Nc4ccc(S(N)(=O)=O)cc4)ncc3F)cc2)n1` [Compound I-268, N2-(4-Aminosulfonylphenyl)-5-fluoro-N4-(4-[3-methyl-1,2,4-oxadiazol-5-yl]methyleneoxyphenyl)-2,4-pyrimidinediamine] are 140 nM and 5080 nM.
In the same order, the values of `Cc1nc(COc2ccc(Nc3nc(Nc4cccc(S(N)(=O)=O)c4)ncc3F)cc2)no1` [Compound I-276, N2-(3-Aminosulfonyl)phenyl-5-fluoro-N4-[4-(5-methyl-1,2,4-oxadiazol-3-yl)methoxy]phenyl-2,4-pyrimidinediamine] are 106 nM and 8090 nM.
